Measured values: publication PMC10490044, “Chromogenic Assay Is More Efficient in Identifying α-Amylase Inhibitory Properties of Anthocyanin-Rich Samples When Compared to the 3,5-Dinitrosalicylic Acid (DNS) Assay” (Molecules, 2023)
Values after ≈ are worked out from the molar mass of the structure shown. Where two headings read alike, the source gives them in different places. One block for each molecule: values may come before it.

Columns and labels:
[1] = molecular target: T1, pancreatic α-amylase (PPA) (Sus scrofa, UniProt P00690); assay: Mode of inhibition / enzyme kinetics, Lineweaver–Burk plots with CNPG3; assay type: biochemical, porcine; settings: for mode of inhibition: CNPG3 0–5 mM, PPA 1 U/mL; for effect of inhibitor on Vmax: Lineweaver–Burk plot
T1 construct: purchased Sigma-Aldrich Co., Ltd., Dorset, UK
T1 sequence (P00690 16-511): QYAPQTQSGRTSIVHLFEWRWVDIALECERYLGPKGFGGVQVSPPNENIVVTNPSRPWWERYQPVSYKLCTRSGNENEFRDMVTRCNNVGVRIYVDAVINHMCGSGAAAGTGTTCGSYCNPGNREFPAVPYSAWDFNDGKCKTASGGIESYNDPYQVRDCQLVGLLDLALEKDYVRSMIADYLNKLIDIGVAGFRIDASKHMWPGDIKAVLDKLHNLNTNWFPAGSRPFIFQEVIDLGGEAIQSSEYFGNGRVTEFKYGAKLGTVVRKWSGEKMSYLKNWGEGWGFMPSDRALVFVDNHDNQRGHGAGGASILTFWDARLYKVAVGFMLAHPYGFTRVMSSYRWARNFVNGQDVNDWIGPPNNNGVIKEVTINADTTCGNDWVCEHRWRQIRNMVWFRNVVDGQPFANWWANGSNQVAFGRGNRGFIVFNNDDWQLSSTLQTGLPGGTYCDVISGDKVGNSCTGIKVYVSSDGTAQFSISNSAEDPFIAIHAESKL
Description: (§1) In preliminary experiments, the optimum enzyme and substrate concentrations for the assay were determined using different concentrations of α-amylase (0.25, 0.5, and 1 U/mL) and CNPG3 (0, 0.625, 1.25, 2.5, and 5 mM). The linearity of enzyme reaction was monitored over 20 min under optimized enzyme and substrate concentrations, and incubation time for enzymatic reaction was defined. […] The rate of enzymatic reaction (V) was calculated by dividing the change in absorbance (at 405 nm) over time. The Lineweaver–Burk double reciprocal plot was obtained by plotting the 1/V against reciprocal of substrate (1/[S]), and Km and Vmax were calculated.
A Lineweaver–Burk plot was constructed for every inhibitor, and Km and Vmax were calculated.
All experiments were conducted at least in triplicates and analysed using Prism software program v. 9 (GraphPad Software, San Diego, CA, USA). […] The IC50 values were then obtained from the respective curve. The mode of enzyme inhibition was graphically determined using the Lineweaver–Burk plot through nonlinear regression of all data sets at once using GraphPad Prism software.

[2] = molecular target: T2, α-amylase (Sus scrofa, UniProt P00690); assay: α-Amylase inhibition by anthocyanin metabolites (assay not stated); assay type: biochemical; settings: high concentrations of 1000 μg/mL
T2 construct: purchased Sigma-Aldrich Co., Ltd., Dorset, UK
T2 sequence (P00690 16-511): T1 sequence (P00690 16-511)

[3] = molecular target: pancreatic alpha-amylase; settings: cited from earlier work
[4] = molecular target: T3, porcine pancreatic α-amylase (PPA) (Sus scrofa, UniProt P00690); settings: cited from earlier work; for mode of inhibition: DNS method; for IC50: ref Sui, Zhang, and Zhou 35
T3 construct: purchased Sigma-Aldrich Co., Ltd., Dorset, UK
T3 sequence (P00690 16-511): T1 sequence (P00690 16-511)

[5] = molecular target: T3, porcine pancreatic α-amylase (PPA); assay: DNS assay, amylose as substrate; assay type: biochemical; settings: concentrations up to 435 μM
Description: The samples were then placed in a water bath (100 °C, 10 min) to stop the enzyme reaction, subsequently transferred to ice, cooled down, and centrifuged at 4000× g for 5 min.
In order to remove potentially interfering compounds such as anthocyanins and other polyphenols that might react with the DNS reagent, solid phase reaction (SPE) was applied [20]. Briefly, Oasis MAX cartridges (30 mg) were preconditioned (1 mL water, 1 mL methanol) and then dried under vacuum for 10 min. The samples that underwent the enzymatic reaction above were applied to the cartridge, and the flow through was collected. Then, 1 mL DNS reagent was added to each SPE-purified flow through sample (500 μL), and samples were heated for 10 min at 100 °C to aid the reaction. Subsequently, samples were cooled down to room temperature, diluted to an appropriate absorbance range, transferred to wells in 96-well plates (2 × 250 µL per sample), and absorbance was recorded at 540 nm using Tecan Spark 10 M multimode microplate reader (TECAN, Mannedorf, Switzerland). Enzyme inhibition was calculated as a percentage of the 100% activity control (absence of inhibitor) and considering individual sample background (absence of enzyme and substrate).

[6] = molecular target: T3, porcine pancreatic α-amylase (PPA); assay: Direct chromogenic assay, CNPG3 as substrate; assay type: biochemical
Description: The inhibition of α-amylase activity was measured according to the method described by Kalita, Holm, LaBarbera, Petrash, and Jayanty with some modifications. […] This was followed by the addition of 50 µL of 2 mM CNPG3 substrate, diluted in phosphate buffer. The change in absorbance, indicating the release of p-nitrophenol as a reaction product, was recorded in 1 min intervals at 405 nm over a 10 min period (at 37 °C) using a Tecan Spark 10 M microplate reader. Reaction product scans (360–600 nm) were performed at the end of each experiment. Enzyme activity and inhibition (%) were calculated from the absorbance difference of each sample, in reference to the non-inhibited control.
as §1

[7] = molecular target: human pancreatic amylase; set-up: method as in Xie et al. 28; settings: similar substrate; ref Xie et al. 28; cited from earlier work
[8] = molecular target: human salivary amylase; settings: reference not given; cited from earlier work
[9] = extracts per total anthocyanin content

Km value (Michaelis constant) of substrate ([1]; no inhibitor): 4.4 mg/mL
Compound: O=[N+]([O-])c1ccc(O[C@H]2O[C@H](CO)[C@@H](O[C@H]3O[C@H](CO)[C@@H](O[C@H]4O[C@H](CO)[C@@H](O)[C@H](O)[C@H]4O)[C@H](O)[C@H]3O)[C@H](O)[C@H]2O)c(Cl)c1 [CNPG3, 2-chloro-4 nitrophenyl α-D-maltotrioside]

inhibition of α-amylase [2]: unable to determine inhibition
Compound: O=C(O)c1cc(O)c(O)c(O)c1 [gallic acid]

Compound: C[C@@H]1O[C@@H](OC[C@H]2O[C@@H](Oc3cc4c(O)cc(O)cc4[o+]c3-c3ccc(O)c(O)c3)[C@H](O)[C@@H](O)[C@@H]2O)[C@H](O)[C@H](O)[C@H]1O [cyanidin-3-rutinoside]
IC50 ([3]; ref 15, read-out: IC50, α-amylase): 24.4 µM
mode of inhibition [4]: competitively

Compound: COc1cc(-c2[o+]c3cc(O)cc(O)c3cc2O[C@@H]2O[C@H](CO)[C@@H](O)[C@H](O)[C@H]2O)ccc1O [peonidin-3-glucoside]
mode of inhibition [4]: competitively
IC50 [4]: 75 ± 7 µM

DNS Assay % inhibition [5]: 7%
IC50 [6]: 491 µM
IC50 [6, 9]: 491 µM
Compound: Oc1cc(O)c2cc(O)c(-c3ccc(O)c(O)c3)[o+]c2c1 [Cyanidin, cyanidin]
IC50, DNS assay ([3]; ref 27): 109.2 µg/mL

Compound: C[C@H]1O[C@H](O[C@H]2[C@H](O)[C@@H](O)[C@@H](O[C@H]3[C@H](O)[C@@H](O)C(O)O[C@@H]3CO)O[C@@H]2CO)[C@H](O)[C@@H](O)[C@@H]1N[C@H]1C=C(CO)[C@@H](O)[C@H](O)[C@H]1O (stereo partly shown) [acarbose]
mode of inhibition [1]: uncompetitive enzyme inhibition
effect of inhibitor on Vmax [1]: decreased
IC50, DNS assay ([3]; ref 15): 11.7 µg/mL (≈ 18.1 µM)
IC50, DNS assay ([3]; ref 27): 77.5 µg/mL (≈ 120 µM)
IC50, human pancreatic amylase [7]: 0.47 µg/mL (≈ 0.728 µM)

IC50 [6]: 414 µM
Direct Chromogenic Assay IC50 [6, 9]: 414 ± 2.6 µg/mL
mode of inhibition [1]: competitive inhibitor
effect of inhibitor on Vmax [1]: remained constant
Compound: OC[C@H]1O[C@@H](Oc2cc3c(O)cc(O)cc3[o+]c2-c2ccc(O)c(O)c2)[C@H](O)[C@@H](O)[C@H]1O [Cyanidin-3-O-galactopyranoside]

Compound: OC[C@H]1O[C@@H](Oc2cc3c(O)cc(O)cc3[o+]c2-c2ccc(O)c(O)c2)[C@H](O)[C@@H](O)[C@@H]1O [cyanidin-3-glucoside]
IC50, DNS assay ([3]; ref 27): 145.5 µg/mL
IC50 [8]: 180 ± 20 µM
mode of inhibition [4]: competitively
IC50 [4]: 24 ± 3 µM

Compound: O=C(O)c1ccc(O)c(O)c1 [protocatechuic acid]
inhibition of α-amylase [2]: unable to determine inhibition

inhibition of α-amylase [2]: unable to determine inhibition
Compound: O=C(/C=C/c1ccc(O)c(O)c1)O[C@@H]1C[C@](O)(C(=O)O)C[C@@H](O)[C@H]1O [chlorogenic acid]

Compound: COc1cc(-c2[o+]c3cc(O)cc(O)c3cc2O[C@@H]2O[C@H](CO)[C@@H](O)[C@H](O)[C@H]2O)cc(OC)c1O [malvidin-3-glucoside]
IC50 [8]: 675 ± 73 µM

Compound: OC[C@H]1O[C@@H](Oc2cc3c(O[C@@H]4O[C@H](CO)[C@@H](O)[C@H](O)[C@H]4O)cc(O)cc3[o+]c2-c2ccc(O)c(O)c2)[C@H](O)[C@@H](O)[C@@H]1O [cyanidin-3,5-diglucoside]
IC50, DNS assay ([3]; ref 27): > 600 µg/mL
mode of inhibition [4]: competitively
